Literature values, collected in patent publication US20040116514A1, “Compositions for preventing human cancer and method of preventing human cancer” (priority 2002, published 2004).

Tested on: humans
Settings: β-carotene alone administered in large quantities to humans (Omenn et al., 1996)

CC1=C(/C=C/C(C)=C/C=C/C(C)=C/C=C/C=C(C)/C=C/C=C(C)/C=C/C2=C(C)CCCC2(C)C)C(C)(C)CCC1 [β-carotene]
incidence rate of pulmonary cancer: actually rises
